The text below walks through data of patent US9695155B2, “Herbicidal substituted pyrimidinyloxy benzene compounds” (E. I. DU PONT DE NEMOURS AND COMPANY, priority 2013, dated 2017).

Each structure is given as a SMILES string.

In one test the test system is green foxtail. The test can be described thus: Test E preemergence. Format: in vivo, Setaria viridis. Conditions: for Foxtail, Green plant response rating: scale 0 to 100 (0 no effect, 100 complete control); for Plant response rating, Foxtail, Green: scale 0 to 100, 0 no effect, 100 complete control. From the text:
(§1) Seeds of plant species selected from corn (Zea mays), soybean (Glycine max), velvetleaf (Abutilon theophrasti), lambsquarters (Chenopodium album), wild poinsettia (Euphorbia heterophylla), palmer pigweed (Amaranthus palmeri), waterhemp (common waterhemp, Amaranthus rudis), surinam grass (Brachiaria decumbens), large (Lg) crabgrass (Digitaria sanguinalis), Brazilian crabgrass (Digitaria horizontalis), fall panicum (Panicum dichotomiflorum), giant foxtail (Setaria faberii), green foxtail (Setaria viridis), goosegrass (Eleusine indica), johnsongrass (Sorghum halepense), ragweed (common ragweed, Ambrosia elatior), barnyardgrass (Echinochloa crus-galli), sandbur (southern sandbur, Cenchrus echinatus), arrowleaf sida (Sida rhombifolia), Italian ryegrass (Lolium multiflorum), dayflower (Virginia (VA) dayflower, Commelina virginica), field bindweed (Convolvulus arvensis), morningglory (Ipomoea coccinea), nightshade (eastern black nightshade, Solanum ptycanthum), kochia (Kochia scoparia), yellow nutsedge (Cyperus esculentus), cocklebur (common cocklebur, Xanthium strumarium), smartweed (ladysthumb smartweed, and hairy beggarticks (Bidens pilosa), were planted into a silt loam soil and treated preemergence with test chemicals formulated in a non-phytotoxic solvent mixture which included a surfactant.
(§2) At the same time, plants from these crop and weed species and also horseweed (Canada horseweed, Conyza canadensis), waterhemp_RES1, (ALS & Triazine resistant common waterhemp, Amaranthus rudis), and waterhemp_RES2, (ALS & HPPD resistant common waterhemp, Amaranthus rudis) were planted in pots containing Redi-Earth® planting medium (Scotts Company, 14111 Scottslawn Road, Marysville, Ohio 43041) comprising spaghnum peat moss, vermiculite, wetting agent and starter nutrients were treated with postemergence applications of test chemicals formulated in the same manner. Plants ranged in height from 2 to 18 cm for postemergence treatments (1- to 4-leaf stage). Treated plants and controls were maintained in a greenhouse for 14 to 21 days, after which time all species were compared to controls and visually evaluated. Plant response ratings, summarized in Table E, are based on a scale of 0 to 100 where 0 is no effect and 100 is complete control. A dash (-) response means no test result.

Another test concerns dayflower. The test can be described thus: Test E preemergence. Format: in vivo, Commelina virginica. Conditions: for Dayflower, VA plant response rating: scale 0 to 100 (0 no effect, 100 complete control); for Plant response rating, Dayflower, VA: scale 0 to 100, 0 no effect, 100 complete control.
Excerpt: as §1, §2

In a further test the test system is wild poinsettia. The experiment in a line: Test E preemergence. Format: in vivo, Euphorbia heterophylla. Conditions: for Poinsettia, Wild plant response rating: scale 0 to 100 (0 no effect, 100 complete control); for Plant response rating, Poinsettia, Wild: scale 0 to 100, 0 no effect, 100 complete control.
Excerpt: as §1, §2

In the next test the test system is Italian ryegrass. The experiment in a line: Test A postemergence. Type of test: in vivo, Lolium multiflorum. The gist of the method:
(§3)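 Greenhouse pot test, loam/sand soil. Formulation: non-phytotoxic solvent mix plus surfactant. Pre: directed spray onto soil after sowing. Post: plants at 1–2 leaf, 2–10 cm. Rated visually vs untreated controls at ~10 d, 0 (no effect) to 100 (complete control).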

For the next test, the system named is galium. The experiment in a line: Test A postemergence. Format: in vivo, Galium aparine. The method in brief: as §3
A further test relates to ragweed. The test can be described thus: Test A preemergence. Conditions: for Plant response rating, Ragweed: 0 to 100 scale where 0 is no effect and 100 is complete control; for Ragweed plant response rating: 500 g ai/ha, 0 to 100 scale, 0 no effect, 100 complete control, approx. 10 days. Format: in vivo, Ambrosia elatior. The gist of the method:
as §3

Where [1] appears, read: 125 g ai/ha, 0 to 100 scale where 0 is no effect and 100 is complete control.
Where [2] appears, read: 500 g ai/ha, 0 to 100 scale where 0 is no effect and 100 is complete control.
[3] abbreviates: 31 g ai/ha, 0 to 100 scale, 0 no effect, 100 complete control.
Setting [4] is: 125 g ai/ha, 0 to 100 scale, 0 no effect, 100 complete control.

Regarding `FC(F)(F)c1cnn(-c2ccccc2Oc2ncc(Cl)cn2)c1` [Compound 16], the “Foxtail, Green plant response rating” value in the test with green foxtail (16 g ai/ha) came out at 0; in the test on green foxtail (31 g ai/ha), 20; with green foxtail (62 g ai/ha) it was 70. Also, the “Plant response rating, Foxtail, Green” value in the test with green foxtail (125 g ai/ha) was found to be 90; in the test with green foxtail (250 g ai/ha), 100. Also, the “Dayflower, VA plant response rating” value in the test with dayflower (16 g ai/ha) is reported as 0; in the test with dayflower (31 g ai/ha), 0; in the test with dayflower (62 g ai/ha) it was 35. The “Plant response rating, Dayflower, VA” value was found to be 70 with dayflower (125 g ai/ha) and 98 with dayflower (250 g ai/ha). Also, the “Poinsettia, Wild plant response rating” value with wild poinsettia (16 g ai/ha) amounted to 0; with wild poinsettia (31 g ai/ha), 0; in the test on wild poinsettia (62 g ai/ha) it was 50. In addition, the “Plant response rating, Poinsettia, Wild” value with wild poinsettia (125 g ai/ha) came to 50; with wild poinsettia (250 g ai/ha) it was 100.
In the case of `N#Cc1cccc(Oc2ncc(F)cn2)c1-n1cc(Cl)cn1` [Compound 73], the “Foxtail, Green plant response rating” value is listed as 0 with green foxtail (16 g ai/ha), 20 in the test on green foxtail (31 g ai/ha) and 70 in the test with green foxtail (62 g ai/ha). For the same compound, the figures for the “Plant response rating, Foxtail, Green” value with green foxtail (125 g ai/ha) and with green foxtail (250 g ai/ha) were 80 and 95, respectively. Moreover, the “Dayflower, VA plant response rating” value in the test with dayflower (16 g ai/ha) is listed as 0; in the test on dayflower (31 g ai/ha), 0; with dayflower (62 g ai/ha) it was 25. The “Plant response rating, Dayflower, VA” value with dayflower (125 g ai/ha) turned out to be 65; with dayflower (250 g ai/ha), 95. The “Poinsettia, Wild plant response rating” value in the test with wild poinsettia (16 g ai/ha) is reported as 0; in the test with wild poinsettia (31 g ai/ha), 30; with wild poinsettia (62 g ai/ha), 35. In addition, the “Plant response rating, Poinsettia, Wild” value is on record as 65 with wild poinsettia (125 g ai/ha) and 85 in the test with wild poinsettia (250 g ai/ha).
For `N#Cc1cccc(Oc2ncc(F)cn2)c1-n1cc(I)cn1` [Compound 86], the “Plant response rating, Ryegrass, Italian” value in the test with Italian ryegrass (setting [1]) turned out to be 80; in the test on Italian ryegrass (setting [2]), 100. Besides, the “Foxtail, Green plant response rating” value with green foxtail (16 g ai/ha) is reported as 0; with green foxtail (31 g ai/ha) it was 0; in the test with green foxtail (62 g ai/ha), 15. Moreover, the “Plant response rating, Foxtail, Green” value with green foxtail (125 g ai/ha) is recorded as 75. Besides, the results for the “Dayflower, VA plant response rating” value in the test with dayflower (16 g ai/ha), in the test with dayflower (31 g ai/ha) and with dayflower (62 g ai/ha) were 0, 0 and 30, respectively. Besides, in the test with dayflower (125 g ai/ha), the “Plant response rating, Dayflower, VA” value is recorded as 65. Moreover, the “Plant response rating, Galium” value in the test on galium (setting [1]) and in the test with galium (setting [2]) was 100 throughout. In addition, the “Poinsettia, Wild plant response rating” value is 0 in the test with wild poinsettia (16 g ai/ha), 10 with wild poinsettia (31 g ai/ha) and 20 with wild poinsettia (62 g ai/ha). Moreover, in the test on wild poinsettia (125 g ai/ha), the “Plant response rating, Poinsettia, Wild” value is recorded as 65. In addition, the “Plant response rating, Ragweed” value with ragweed (125 g ai/ha) is reported as 90. For the same compound, the “Ragweed plant response rating” value in the test with ragweed is recorded as 100.
With `N#Cc1cccc(Oc2ncc(Br)cn2)c1-n1cc(I)cn1` [Compound 88], the “Plant response rating, Ryegrass, Italian” value in the test with Italian ryegrass (setting [1]) came to 50; in the test on Italian ryegrass (setting [2]) it was 90. Also, the “Foxtail, Green plant response rating” value with green foxtail (16 g ai/ha), with green foxtail (31 g ai/ha) and in the test on green foxtail (62 g ai/ha) was 0 throughout. Besides, in the test with green foxtail (125 g ai/ha), the “Plant response rating, Foxtail, Green” value is 35. Besides, the “Dayflower, VA plant response rating” value with dayflower (16 g ai/ha), in the test with dayflower (31 g ai/ha) and with dayflower (62 g ai/ha) was 0 each time. In addition, the “Plant response rating, Dayflower, VA” value in the test on dayflower (125 g ai/ha) is on record as 60. Also, the “Plant response rating, Galium” value with galium (setting [1]) and in the test on galium (setting [2]) was 100 each time. For the same compound, the “Poinsettia, Wild plant response rating” value with wild poinsettia (16 g ai/ha), in the test with wild poinsettia (31 g ai/ha) and with wild poinsettia (62 g ai/ha) was 0 in each case. Besides, the “Plant response rating, Poinsettia, Wild” value in the test with wild poinsettia (125 g ai/ha) came out at 0. The “Ragweed plant response rating” value in the test on ragweed turned out to be 60.
Consider `N#Cc1cnn(-c2c(C#N)cccc2Oc2ncc(F)cn2)c1` [Compound 111], for which the “Foxtail, Green plant response rating” value with green foxtail (16 g ai/ha) is on record as 0; with green foxtail (31 g ai/ha) it was 10; with green foxtail (62 g ai/ha), 70. The “Plant response rating, Foxtail, Green” value in the test on green foxtail (125 g ai/ha) came to 90. In addition, the “Dayflower, VA plant response rating” value with dayflower (16 g ai/ha) worked out at 0; with dayflower (31 g ai/ha) it was 0; with dayflower (62 g ai/ha), 20. For the same compound, the “Plant response rating, Dayflower, VA” value with dayflower (125 g ai/ha) is on record as 20. The results for the “Poinsettia, Wild plant response rating” value with wild poinsettia (16 g ai/ha), in the test with wild poinsettia (31 g ai/ha) and in the test with wild poinsettia (62 g ai/ha) were 15, 30 and 70, respectively. Also, the “Plant response rating, Poinsettia, Wild” value with wild poinsettia (125 g ai/ha) worked out at 85.
Regarding `N#Cc1cnn(-c2c(CF)cccc2Oc2ncc(F)cn2)c1` [Compound 151], the “Plant response rating, Ryegrass, Italian” value with Italian ryegrass (setting [3]) was 0. Further, the “Ryegrass, Italian plant response rating” value with Italian ryegrass (setting [1]) was 30. The “Foxtail, Green plant response rating” value with green foxtail (16 g ai/ha) is listed as 20; in the test with green foxtail (31 g ai/ha) it was 20; with green foxtail (62 g ai/ha), 70. The “Plant response rating, Foxtail, Green” value in the test on green foxtail (125 g ai/ha) was 75. The “Dayflower, VA plant response rating” value in the test on dayflower (16 g ai/ha) turned out to be 0; in the test on dayflower (31 g ai/ha), 10; in the test with dayflower (62 g ai/ha), 65. The “Plant response rating, Dayflower, VA” value in the test with dayflower (125 g ai/ha) is reported as 85. Further, the “Plant response rating, Galium” value with galium (setting [3]) is on record as 10. In the test on galium (setting [1]), the “Galium plant response rating” value is reported as 40. Besides, the “Poinsettia, Wild plant response rating” value in the test with wild poinsettia (31 g ai/ha) turned out to be 60; in the test on wild poinsettia (62 g ai/ha), 100. In addition, the “Plant response rating, Poinsettia, Wild” value with wild poinsettia (125 g ai/ha) worked out at 100. For the same compound, the “Plant response rating, Ragweed” value in the test with ragweed (31 g ai/ha, visual, approximately 10 days) is reported as 20; in the test with ragweed (125 g ai/ha), 80.
With `FCc1cccc(Oc2ncc(Cl)cn2)c1-n1cc(Cl)cn1` [Compound 250], the “Plant response rating, Ryegrass, Italian” value in the test with Italian ryegrass (setting [3]) and in the test on Italian ryegrass (setting [4]) was 0 throughout. Besides, the “Foxtail, Green plant response rating” value in the test on green foxtail (16 g ai/ha), with green foxtail (31 g ai/ha) and in the test with green foxtail (62 g ai/ha) was 0 each time. Also, in the test with green foxtail (125 g ai/ha), the “Plant response rating, Foxtail, Green” value was 90. Moreover, the “Dayflower, VA plant response rating” value came to 0 with dayflower (16 g ai/ha), 0 in the test on dayflower (31 g ai/ha) and 50 in the test with dayflower (62 g ai/ha). The “Plant response rating, Dayflower, VA” value with dayflower (125 g ai/ha) is recorded as 70. In addition, the “Plant response rating, Galium” value with galium (setting [3]) is 10; with galium (setting [4]), 60. In addition, the “Poinsettia, Wild plant response rating” value with wild poinsettia (31 g ai/ha) and in the test with wild poinsettia (62 g ai/ha) was 0 each time. Further, the “Plant response rating, Poinsettia, Wild” value in the test with wild poinsettia (125 g ai/ha) was determined as 20.
